# In patent publication US20140315834A1 (Medicon Pharmaceuticals, Inc., priority 2012, published 2014):
# Like-named read-outs stand apart in the source and are kept apart here.
# Key:
# [1] = test system: MDA-MB-231 human BC cells; experiment: Orthotopic MDA-MB-231 breast cancer xenografts, prevention; assay type: in vivo, mice
# [2] = biological target: CYP 3A4 (Homo sapiens, UniProt P08684); conditions: 37° C., NADPH-regenerating solution
# Method: (§1) PSA 95 was pre-incubated at 37° C. for 5 minutes with an NADPH-regenerating solution in 0.1 M potassium phosphate buffer (pH 7.4). The reaction was initiated by the addition of individual recombinant human CYP isoforms (25 μmol/ml) in a total volume of 1 ml and samples were maintained at 37° C. for various time periods. At each designated time-point, aliquots were extracted with acetonitrile, and subjected to HPLC analysis.
# [3] = biological target: CYP 2C19 (Homo sapiens, UniProt P33261); conditions: 37° C., NADPH-regenerating solution
# Method: as §1
# [4] = biological target: CYP 2D6 (Homo sapiens, UniProt P10635); conditions: 37° C., NADPH-regenerating solution
# Method: as §1
# [5] = biological target: CYP 2C9 (Homo sapiens, UniProt P11712); conditions: 37° C., NADPH-regenerating solution
# Method: as §1
# [6] = biological target: CYP 1A2 (Homo sapiens, UniProt P05177); conditions: 37° C., NADPH-regenerating solution
# Method: as §1
# [7] = test system: A431 skin cancer cells; experiment: Cellular uptake, intracellular level by HPLC; conditions: 1 hour incubation
# Method: A431 skin cancer cells were seeded into 6-well culture plates (5×10^5 per well). After overnight incubation, the cells were incubated with 100 pM of each compound alone for 1 hour. After the media were removed and the monolayers were washed three times with PBS (1% BSA), the cells were collected in PBS.
# [8] = mouse, in vivo, po, 100 mg/kg
# [9] = parameters: AUC in lung: unit not given beside the values; conditions: mouse, in vivo, inhaled or intranasal
# [10] = in vivo; conditions: wt (wild type) and nude, mouse, po
# [11] = test system: U87 glioblastoma cell line; experiment: 24-hour growth inhibition of glioblastoma cells; assay type: cell-based; conditions: read-out: 24-h 1c50
# [12] = test system: p-c-RAF; experiment: Immunostaining of xenograft tissue sections, p-c-RAF; assay type: in vivo, mice; conditions: MIA PaCa-2 xenograft tissue sections
# [13] = Sub-chronic toxicity of P-FTS, 3 weeks oral gavage; assay type: in vivo, mice
# Method: The toxicity of P-FTS in mice was further examined. Groups of 6 week-old female BALB/c mice (5 mice/group) were given by oral gavage once a day for 3 weeks P-FTS: 0, 75, 150, 250 and 350 mg/kg. […] The (sub-chronic) maximum tolerated dose of P-FTS 67 (3-week period of observation) was determined to be at least 350 mg/kg/d.
# [14] = test system: active Ras in MIA PaCa-2 xenografts; experiment: Ras-GTP pull down assay in xenograft lysates; assay type: in vivo, mice
# Method: The inhibition of Ras by P-FTS 67 was further confirmed in vivo. The Ras-GTP pull down assay was used to test the capacity of P-FTS 67 to inhibit active Ras in fresh protein lysates from MIA PaCa-2 xenografts. Compared to controls, P-FTS 67, 50 and 100 mg/kg reduced RAS activation in xenografts by 62% and 70%, respectively (p<0.01, for both; FIG. 30A).
# [15] = test system: Ras (Ras-GTP) in Panc-1 cells; experiment: Ras-GTP pull down assay in cells; assay type: cell-based
# Source text: In the following experiments it was examined whether the pancreatic cancer growth inhibitory effect of P-FTS 67 is associated with down regulation of Ras signaling. For this purpose, the Ras-GTP pull down assay was used.
# [16] = test system: MIA PaCa-2 cells; experiment: MIA PaCa-2 pancreatic cancer xenografts; assay type: in vivo, mice; conditions: for reduction of tumor volume growth: day 25
# Method: The in vivo chemotherapeutic potential of P-FTS 67 was assessed using a pancreatic cancer xenograft model. MIA PaCa-2 cells were injected subcutaneously into the flank areas of nude mice. When palpable tumors were observed, the mice received P-FTS 67, 50 or 100 mg/kg/d by oral gavage in corn oil or just corn oil (control) for 25 days. On day 25 of treatment, P-FTS 67, 50 mg/kg/d, and P-FTS 67, 100 mg/kg/d reduced the tumor volume growth by 62% and 65%, respectively (p <0.05; FIG. 27).
# [17] = test system: AsPC-1, CFPAC-1, Capan-2, Panc-1 and MIA PaCa-2; experiment: Growth of human pancreatic cancer cell lines, 24 hours; assay type: cell-based; conditions: escalating concentrations, all cell lines
# Method: Cell growth was determined in the human pancreatic cancer cell lines AsPC-1, CFPAC-1, Capan-2, Panc-1 and MIA PaCa-2 after treatment with escalating concentrations of P-FTS 67 for 24 hours.
# [18] = test system: p-ERK1/2; experiment: Immunostaining of xenograft tissue sections, p-ERK1/2; assay type: in vivo, mice; conditions: MIA PaCa-2 xenograft tissue sections
# [19] = Pharmacokinetics of PI-PEG and PI, i.p.; assay type: in vivo, mice; conditions: equimolar doses
# Method: PI-PEG 7 and PI 1 were injected i.p. in mice at equimolar doses and at predetermined time points the animals were sacrificed and blood was collected through heart puncture. PI-PEG and PI were extracted by adding a 2-fold volume of acetonitrile. After centrifugation for 10 minutes at 5000×g, the supernatants were subjected to HPLC analysis.
# [20] = Pharmacokinetics of PTI, plasma levels after i.p. dose
# [21] = rat, in vivo
# [22] = Levels of PA-III and metabolites in blood and xenografts by HPLC; assay type: in vivo; conditions: mice treated with PA-III 506
# [23] = Maximum tolerated dose of PA-III; parameters: species or system mice; conditions: mouse, in vivo
# Method: The ability of phospho-aspirin III (PA-III) 506 to prevent breast cancer (BC) was evaluated using MDA-MB-231 human BC cells xenografted into one of the mammary glands of nude mice (orthotopic xenografts). PA was administered orally, 120 mg/kg/d 1 week prior to inoculating the cells (the standard prevention protocol); acetylsalicylic acid (ASA) was given at an equimolar dose of 40 mg/kg/d. This was the highest dose of ASA that these mice could tolerate on a long-term basis. The dose of PA-III 506 represents <10% of its maximum tolerated dose (MTD>1,600 mg/kg), but was chosen so that a comparison between PA-III 506 and ASA was possible.
# [24] = test system: SW480 colon cancer cells; experiment: SW480 xenografts, prevention of colon cancer; assay type: in vivo, mice; conditions: 10 mg/kg/day oral gavage, 43 days, end of study
# Method: Six-week-old female athymic nude mice, i.e. lacking a thymus gland and having no T-cells (Taconic Farms, Germantown, N.Y.; in =6/group) were treated by oral gavage of PTI 10 mg/kg/day, or vehicle (corn oil) for a total of 43 days. Five days later, 1.2×10^6 SW480 colon cancer cells suspended in 100 μl of phosphate buffered saline (PBS) were inoculated subcutaneously to each flank of the mice. Tumor size was monitored by measuring the length (L) and width (W) with a digital caliper and the volume was calculated according to the formula, L×W×(L+W/2)×0.56.
# [25] = Cardiotoxicity, histology of heart tissue sections; assay type: in vivo, mice; conditions: treated for about 1.5 months
# Source text: Heart tissue sections from mice treated with PTI for about 1.5 months were examined histologically.
# [26] = Gastrointestinal toxicity, gastric ulcers by H&E staining
# [27] = test system: Salmonella Typhimurium (TA98 and TA100); experiment: Genotoxicity, reverse mutation with and without rat liver S9; conditions: TA98 and TA100, presence and absence of rat liver S9
# [28] = Pharmacokinetics of phosphosulindac amide, single oral dose; conditions: after single oral dose 100 mg/kg PSA 95
# [29] = test system: A549 human lung cancer xenografts; experiment: A549 sc xenografts, i.v. PS in nanocarrier vs sulindac; assay type: in vivo, mice; conditions: equimolar dose of sulindac 40 mg/kg
# [30] = 120 mg/kg/d orally, 20 treated mice
# Chain of CYP 3A4 (P08684 whole entry): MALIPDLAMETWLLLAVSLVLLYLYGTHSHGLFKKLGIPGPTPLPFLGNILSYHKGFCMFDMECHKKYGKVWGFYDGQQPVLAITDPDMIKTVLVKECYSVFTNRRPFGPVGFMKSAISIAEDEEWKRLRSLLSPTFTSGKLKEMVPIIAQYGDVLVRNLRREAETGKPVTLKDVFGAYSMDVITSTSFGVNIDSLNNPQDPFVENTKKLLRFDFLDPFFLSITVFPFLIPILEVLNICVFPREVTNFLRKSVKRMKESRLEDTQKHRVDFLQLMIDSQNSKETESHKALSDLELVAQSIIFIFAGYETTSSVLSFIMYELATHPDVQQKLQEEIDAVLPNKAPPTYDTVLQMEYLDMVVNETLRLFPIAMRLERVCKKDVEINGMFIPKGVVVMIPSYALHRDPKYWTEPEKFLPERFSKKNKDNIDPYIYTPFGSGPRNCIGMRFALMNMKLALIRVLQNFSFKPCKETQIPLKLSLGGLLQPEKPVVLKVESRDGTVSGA
# Chain of CYP 2D6 (P10635 whole entry): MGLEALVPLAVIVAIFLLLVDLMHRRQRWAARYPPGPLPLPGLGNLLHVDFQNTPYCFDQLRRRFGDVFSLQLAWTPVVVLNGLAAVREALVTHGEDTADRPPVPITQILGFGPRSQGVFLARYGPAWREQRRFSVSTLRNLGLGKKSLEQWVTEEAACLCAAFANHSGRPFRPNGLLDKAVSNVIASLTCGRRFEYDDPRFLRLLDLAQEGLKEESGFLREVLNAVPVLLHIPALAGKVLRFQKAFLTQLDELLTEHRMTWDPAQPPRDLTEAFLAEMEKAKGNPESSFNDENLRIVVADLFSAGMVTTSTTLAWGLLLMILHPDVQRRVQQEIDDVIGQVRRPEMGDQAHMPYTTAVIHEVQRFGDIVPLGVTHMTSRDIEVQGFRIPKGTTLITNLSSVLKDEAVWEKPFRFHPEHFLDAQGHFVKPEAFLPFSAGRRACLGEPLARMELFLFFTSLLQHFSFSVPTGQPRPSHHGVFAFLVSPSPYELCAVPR
# Chain of CYP 1A2 (P05177 whole entry): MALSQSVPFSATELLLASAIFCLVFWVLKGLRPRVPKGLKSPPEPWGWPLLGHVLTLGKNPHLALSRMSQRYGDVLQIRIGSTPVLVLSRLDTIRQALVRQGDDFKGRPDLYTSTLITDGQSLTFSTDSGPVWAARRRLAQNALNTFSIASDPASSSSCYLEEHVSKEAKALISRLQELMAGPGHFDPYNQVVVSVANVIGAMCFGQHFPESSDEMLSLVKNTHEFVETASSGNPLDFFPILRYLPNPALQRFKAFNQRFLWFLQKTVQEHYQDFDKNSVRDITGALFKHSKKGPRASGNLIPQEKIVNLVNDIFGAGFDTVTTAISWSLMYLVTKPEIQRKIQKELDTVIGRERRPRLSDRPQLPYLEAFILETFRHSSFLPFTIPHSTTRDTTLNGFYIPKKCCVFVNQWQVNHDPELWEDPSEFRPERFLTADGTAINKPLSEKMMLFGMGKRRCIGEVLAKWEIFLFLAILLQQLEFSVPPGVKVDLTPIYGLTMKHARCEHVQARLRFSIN
# Chain of CYP 2C9 (P11712 whole entry): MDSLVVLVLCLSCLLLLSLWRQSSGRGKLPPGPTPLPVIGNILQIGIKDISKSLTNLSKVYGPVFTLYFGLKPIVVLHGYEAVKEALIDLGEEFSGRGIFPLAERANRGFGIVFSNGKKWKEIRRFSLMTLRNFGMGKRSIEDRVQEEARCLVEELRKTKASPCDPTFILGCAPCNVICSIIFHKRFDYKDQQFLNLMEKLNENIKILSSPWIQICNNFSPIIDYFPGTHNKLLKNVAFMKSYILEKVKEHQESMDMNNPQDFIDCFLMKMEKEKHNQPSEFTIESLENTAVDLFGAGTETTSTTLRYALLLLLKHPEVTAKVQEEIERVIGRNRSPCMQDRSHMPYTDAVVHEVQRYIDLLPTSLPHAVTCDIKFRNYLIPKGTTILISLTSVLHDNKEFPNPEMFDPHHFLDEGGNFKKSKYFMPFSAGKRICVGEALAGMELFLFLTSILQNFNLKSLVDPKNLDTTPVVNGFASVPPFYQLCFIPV
# Chain of CYP 2C19 (P33261 whole entry): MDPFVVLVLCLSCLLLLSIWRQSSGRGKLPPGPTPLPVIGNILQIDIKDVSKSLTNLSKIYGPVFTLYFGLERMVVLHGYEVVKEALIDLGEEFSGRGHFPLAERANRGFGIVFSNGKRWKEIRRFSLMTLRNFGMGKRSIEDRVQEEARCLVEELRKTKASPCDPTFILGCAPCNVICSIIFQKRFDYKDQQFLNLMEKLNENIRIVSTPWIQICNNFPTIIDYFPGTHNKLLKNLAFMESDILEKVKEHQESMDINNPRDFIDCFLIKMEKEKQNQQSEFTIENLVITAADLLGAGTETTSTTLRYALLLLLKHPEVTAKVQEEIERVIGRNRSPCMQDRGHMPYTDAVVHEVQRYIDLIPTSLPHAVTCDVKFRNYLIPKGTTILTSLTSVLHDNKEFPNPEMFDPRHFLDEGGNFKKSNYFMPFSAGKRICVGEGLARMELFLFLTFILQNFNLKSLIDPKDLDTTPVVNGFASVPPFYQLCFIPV
structure (smiles),measurement,setting,value
"CC(=O)Oc1ccccc1C(=O)O [ASA, acetylsalicylic acid]",effect on BC xenograft growth,[1]; 40 mg/kg/d,no effect
same,oxidation by CYP 3A4,[2],cannot be oxidized
same,oxidation (conversion to 5-OH-PSA) by CYP 2C19,[3],cannot be oxidized
same,oxidation (conversion to 5-OH-PSA) by CYP 2D6,[4],cannot be oxidized
same,oxidation by CYP 2C9,[5],cannot be oxidized
same,oxidation by CYP 1A2,[6],cannot be oxidized
CC(C)Cc1ccc(C(C)C(=O)OCCCCOP(=O)(O)O)cc1 (stereo not drawn) [phospho-ibuprofen phosphate 505],accumulation in A431 cells,[7]; limit of detection 2.5 pmol,no significant accumulation
"CC1=C(CC(=O)O)c2cc(F)ccc2/C1=C\c1ccc(S(C)(=O)=O)cc1 [Sulindac sulfone, sulindac sulfone]",metabolite generated by PSA 95,[8],no detectable
same,AUC in lung,[9],57.5
same,Tmax in lung,[9],8 h
same,Tmax in plasma,[9],8 h
"CCOP(=O)(OCC)OCC(CNC(=O)CC1=C(C)/C(=C/c2ccc([S+](C)[O-])cc2)c2ccc(F)cc21)OP(=O)(OCC)OCC (stereo not drawn) [Compound 99, (Z)-tetraethyl 3-(2-(5-fluoro-2-methyl-1-(4-(methylsulfinyl)benzylidene)-1H-inden-3-yl)acetamido)propane-1,2-diyl diphosphate]",MTD at 1 week,[10],> 500 mg/kg/day
"CC(C)Cc1ccc(C(C)C(=O)O)cc1 (stereo not drawn) [ibuprofen, reference compound]",IC50,"[11]; U87, 24-hour growth inhibition",≥ 1000 µM
same,accumulation in A431 cells,[7]; limit of detection 2.5 pmol,no significant accumulation
CCOP(=O)(OCC)OCCCCOC(=O)c1ccccc1SC/C=C(\C)CC/C=C(\C)CCC=C(C)C [Compound 67],reduction of expression of p-c-RAF,[12],73%
same,weight loss or other signs of toxicity,"[13]; 75, 150, 250 and 350 mg/kg oral gavage once a day for 3 weeks",no weight loss or other signs of toxicity
same,(sub-chronic) maximum tolerated dose,"[13]; oral gavage once a day, 3-week period of observation",at least 350 mg/kg/d
same,reduction of RAS activation in xenografts,[14]; 50 mg/kg,62%
same,reduction of RAS activation in xenografts,[14]; 100 mg/kg,70%
same,inhibition of active Ras (Ras-GTP),[15],significantly inhibited
same,reduction of tumor volume growth,[16]; 50 mg/kg/d oral gavage,62%
same,reduction of tumor volume growth,[16]; 100 mg/kg/d oral gavage,65%
same,tolerability in the efficacy study,"[16]; 50 or 100 mg/kg/d oral gavage, 25 days",well tolerated
same,"pancreatic cancer cell growth, % control",[17],decreases pancreatic cancer cell growth in a concentration-dependent manner
same,reduction of expression of p-ERK1/2,[18],71%
"CCOP(=O)(OCC)OCCCCOC(=O)C(C)c1ccc(CC(C)C)cc1 (stereo not drawn) [Compound 2, phospho-ibuprofen]",IC50,[11]; 24 h,98 µM
same,stability and circulation in blood,[19],rapidly hydrolyzed
same,level inside the cells,[7]; 100 pM,0.75 nM
same,increase over the other two compounds,[7]; limit of detection 2.5 pmol,≥ 300 fold
"COc1ccc2c(c1)c(CC(=O)O)c(C)n2C(=O)c1ccc(Cl)cc1 [indomethacin, reference compound]",Tmax,"[20]; mouse, plasma, ip, 58 mg/kg",1 h
same,"gastric damage, H&E stained gastric tissue sections",[21],caused gastric damage
"CCOP(=O)(OCC)OCCCCOC(=O)c1ccccc1OC(C)=O [PA-III 506, phospho-aspirin]",reduction of average tumor volume compared to controls,[1]; 120 mg/kg/d orally,62%
same,treated mice that had no tumors,[1]; [30],20%
same,treated mice that had tumors <100 mm^3,[1]; [30],30%
same,intact compound in plasma or xenografts,[22],No intact PA-III 506 in either plasma or xenografts was detected
same,maximum tolerated dose (MTD),[23],"> 1,600 mg/kg"
CCOP(=O)(OCC)OCCc1ccc(OC(=O)Cc2c(C)n(C(=O)c3ccc(Cl)cc3)c3ccc(OC)cc23)cc1 [Compound 93],reduction of tumor growth,[24],85%
same,heart histology vs healthy control mice,[25],no differences
same,"gastric damage, H&E stained gastric tissue sections",[26]; FIG. 18A,not
same,reduction of ulcers compared to indomethacin,"[26]; day 5, PTI 10 mg/kg/day",60%
same,rats that developed ulcers,"[26]; day 5, gavage 4 days, indomethacin 4.75 mg/kg/day, PTI 10 mg/kg/day",40%
same,AUCtotal of PTI relative to indomethacin,"[20]; FIG. 19, equimolar i.p. doses",about 3.5 times
same,time at which PTI became undetectable post administration,[20]; single i.p. dose 100 mg/kg PTI,4 h
same,time of maximum concentration of PTI,[20]; single i.p. dose 100 mg/kg PTI,2 h
same,genotoxicity,[27],no genotoxicity
"CC1=C(CC(=O)O)c2cc(F)ccc2/C1=C\c1ccc([S+](C)[O-])cc1 (stereo not drawn) [Sulindac, sulindac, reference compound]",IC50,"[11]; U87, 24-hour growth inhibition",≥ 1000 µM
same,metabolite generated by PSA 95,[28],no detectable
same,inhibition of growth of xenografts,[29],32%
